Drawing on PMC12040169 (PLOS Biology, 2025), this text covers viability for 80 compounds.

A short description of the first series: in vitro. To be noted: human, hela cells.
For the compound `O=C(NCCc1ccccc1)c1ccc(N2CCN(C(=O)c3ccccc3C(F)(F)F)CC2)nn1` [CBK153212], the viability (as a rule, a read-out of living cells in per cent, often relative to untreated cells) at 28.5 h, 10 µM came out at 83.2%.

Staying with this series, now noted: human, hela cells, % viability.
On to `CC(C)(C)c1ccc(C(=O)N2CCC3(CC2)CC(=O)N(Cc2ccc(S(C)(=O)=O)cc2)C3=O)cc1` [CBK155018], for which the viability at 28.5 h, 10 µM was 106%.

With `COc1ccc2c(c1)cc(C)c1n[nH]c(=O)n12` [CBK283766], the viability at 28.5 h, 10 µM was determined as 76.7%.

For the compound `CCCn1c(NCc2cccc(OC)c2O)nc2ccccc21` [CBK133763], the viability at 28.5 h, 10 µM worked out at 96.4%.

`O=C(Cc1ccc(-c2ccccc2)cc1)N1CCC2(CC1)Nc1ccccc1S(=O)(=O)N2` [CBK286189]: the viability at 28.5 h, 10 µM came out at 79.2%.

In the case of `S=C(NNC(=S)Nc1ccc(Cl)c(Cl)c1)Nc1cccnc1` [CBK268483], the viability at 28.5 h, 10 µM was found to be 96.2%.

As for `Cc1cc(CN2CCN(c3nc(-c4ccccc4)nc4ccccc34)CC2)no1` [CBK296654], the viability at 28.5 h, 10 µM turned out to be 87.7%.

As for `COc1ccc(CCC(=O)NCC(c2cccs2)N2CCOCC2)cc1` (centres unmarked) [CBK304674], the viability at 28.5 h, 10 µM is 107%.

For `Cc1cccc(-c2noc(C)c2C(=O)NCCn2ccnc2C)c1` [CBK282633], the viability at 28.5 h, 10 µM was determined as 107%.

As to `CC(=O)N[C@H]1CO[C@H]2[C@@H]1OC[C@@H]2n1nnnc1Oc1ccc(-n2ccnc2)cc1` [CBK289487], the viability at 28.5 h, 10 µM is 104%.

`CC(Cc1cccs1)NC(=O)c1cc(-c2ccccn2)n[nH]1` (centres unmarked) [CBK282446]: the viability at 28.5 h, 10 µM turned out to be 104%.

`Cc1ccc(C(=O)NCCCc2ccc(Cl)cc2)c(=O)n1C` [CBK281567]: the viability at 28.5 h, 10 µM is 80.4%.

In the case of `CN1CCN(CCCNC(=O)N2CCCC(CO)C2)CC1` (centres unmarked) [CBK156029], the viability at 28.5 h, 10 µM amounted to 99.7%.

On to `O=C(CSc1nccn(-c2ccc(F)cc2)c1=O)Nc1ccc(F)cc1` [CBK287768], for which the viability at 28.5 h, 10 µM was 91.2%.

As for `Cc1cn2cccc(C(=O)N3CCCCC3CCN3CCOCC3)c2n1` (centres unmarked) [CBK306518], the viability at 28.5 h, 10 µM stood at 90.3%.

`Cc1cc(C)nc(SCc2c(C)c(C)c(CSc3nc(C)cc(C)n3)c(C)c2C)n1` [CBK262070]: the viability at 28.5 h, 10 µM turned out to be 109%.

Turning to `O=C(N[C@@H]1CNCCC[C@H]1O)c1ccc(OCCN2CCCC2)cc1` [CBK289070], the viability at 28.5 h, 10 µM amounted to 101%.

In the case of `O=C(Nc1ccncc1)c1cc2cc(OC(F)(F)F)ccc2[nH]1` [CBK107369], the viability at 28.5 h, 10 µM worked out at 89.3%.

Take `O=c1[nH]c(=O)n(Cc2ccccc2)c2nc[nH]c12` [CBK291140]: the viability at 28.5 h, 10 µM turned out to be 108%.

Turning to `CN(C)CCN1C(=O)C(O)=C(C(=O)c2ccco2)C1c1ccc([N+](=O)[O-])cc1` (centres unmarked) [CBK264486], the viability at 28.5 h, 10 µM amounted to 109%.

Take `CC(=O)Nc1ccc(-c2cncc(NCCCO)n2)cc1` [CBK065598]: the viability at 28.5 h, 10 µM came out at 103%.

Consider `COc1ccc(C(=O)N2CC[C@H]3NC(=O)N(c4ccccc4)C(=O)[C@H]32)cc1` [CBK289281], for which the viability at 28.5 h, 10 µM came to 93.1%.

Consider `CC(C)C(=O)Nc1ccc(-c2ccccc2)c2ccccc12` [CBK083731], for which the viability at 28.5 h, 10 µM was 101%.

As for `O=C(Cc1ccccn1)N1CCCc2ccccc21` [CBK200343], the viability at 28.5 h, 10 µM is 105%.

On to `O=S(=O)(Nc1ccccc1O)c1ccc(OC(F)(F)F)cc1` [CBK043512], for which the viability at 28.5 h, 10 µM was 80.2%.

For the compound `COc1cc(F)ccc1-c1ccc2ccc(NC(=O)C(C)C)nc2n1` [CBK073666], the viability at 28.5 h, 10 µM was 87.1%.

With `O=C(NO)c1nc[nH]c1C(=O)NO` [CBK262077], the viability at 28.5 h, 10 µM turned out to be 97.7%.

In the case of `COc1ccc([C@@H]2CCN(C(=O)Cc3ccccc3F)C[C@H]2O)cc1` [CBK283756], the viability at 28.5 h, 10 µM amounted to 100%.

For `COc1ccc(I)cc1S(=O)(=O)NCc1ccccn1` [CBK264019], the viability at 28.5 h, 10 µM was determined as 91.3%.

Consider `O=c1oc2ccccc2c(NCCN2CCCCC2)c1[N+](=O)[O-]` [CBK218805], for which the viability at 28.5 h, 10 µM amounted to 92%.

For the compound `O=S(=O)(O)CCCSc1nc2ccccc2o1` [CBK026507N], the viability at 28.5 h, 10 µM was determined as 97.2%.

For `CCCc1cc(C(=O)NC(C)(C)CN2CCCC(C)C2)[nH]n1` (centres unmarked) [CBK282467], the viability at 28.5 h, 10 µM was found to be 89.1%.

Turning to `O=C(O)c1ccc(/C=N\NC(=O)C2COc3cc4ccccc4cc3O2)cc1` (centres unmarked) [CBK262792], the viability at 28.5 h, 10 µM was 90.4%.

In the case of `O=C(O)CCC(=O)N1CCCc2ccccc21` [CBK051167], the viability at 28.5 h, 10 µM was determined as 92.6%.

In the case of `O=C(NCc1cn2ccccc2n1)c1ccc(C2SCCS2)cc1` [CBK295167], the viability at 28.5 h, 10 µM stood at 83.5%.

On to `Cc1nn(-c2cccc(C(=O)NC3CCCOC3)c2)c(C)c1Cl` (centres unmarked) [CBK282512], for which the viability at 28.5 h, 10 µM turned out to be 83.6%.

As to `FC(F)(F)c1ccnc(OCCc2c[nH]c3ccccc23)n1` [CBK116625], the viability at 28.5 h, 10 µM came to 80.2%.

For the compound `O=C(c1ccccc1)c1ccc(OCCO)cc1` [CBK000725], the viability at 28.5 h, 10 µM stood at 94%.

For the compound `O=C(O)CCC(=O)N1CCCC2(CCN(C(=O)Cc3c[nH]c4ccccc34)C2)C1` (centres unmarked) [CBK131572], the viability at 28.5 h, 10 µM was found to be 91.2%.

As to `CC1=NS(=O)(=O)NC2=C1CCCC2` [CBK022998], the viability at 28.5 h, 10 µM is 96.6%.

Turning to `N#CCCN(C(=O)NCCN1CCOCC1)C1CCCCC1` [CBK156357], the viability at 28.5 h, 10 µM worked out at 107%.

For the compound `Cc1ccc(C(=O)NCCCNC(=O)c2ccncc2)cc1` [CBK269477], the viability at 28.5 h, 10 µM was found to be 86%.

For `COc1ccc2c(c1)C1(CC(=O)N(CC(=O)N(C)C)C1=O)C(=O)N2Cc1ccc2ccccc2n1` (centres unmarked) [CBK075923], the viability at 28.5 h, 10 µM came to 93.7%.

In the case of `c1csc(CNc2nccnc2-c2ccoc2)c1` [CBK036599], the viability at 28.5 h, 10 µM stood at 107%.

For the compound `Cc1nn(-c2nc3ccccc3s2)c(O)c1C1OC(=O)c2ccccc21` (centres unmarked) [CBK267220], the viability at 28.5 h, 10 µM turned out to be 95%.

`Cc1n[nH]c(NN)c1Cl` [CBK260876C]: the viability at 28.5 h, 10 µM was 89.5%.

In the case of `Cc1cc(S(=O)(=O)N2CCCC2)ccc1OCC(=O)NCc1ccccn1` [CBK270027], the viability at 28.5 h, 10 µM was determined as 96%.

In the case of `COc1ccc(CN2CCN(C)CC2)cc1OCc1ccccc1` [CBK261886], the viability at 28.5 h, 10 µM turned out to be 88.2%.

`O=C(O)c1cc(-c2cccnc2)nc2ccc(Br)cc12` [CBK263674]: the viability at 28.5 h, 10 µM is 105%.

For the compound `CCOC(=O)Cc1csc(NS(=O)(=O)c2ccc(OC(F)(F)F)cc2)n1` [CBK000852], the viability at 28.5 h, 10 µM was 110%.

Turning to `O=[N+]([O-])c1ccccc1/C=C\C=N\n1c(S)nnc1-c1ccc(Cl)cc1Cl` [CBK264405], the viability at 28.5 h, 10 µM was 95%.

Consider `Cc1ccc(S(=O)(=O)c2ccc(C)c(S(=O)(=O)NC3CCCCC3)c2)cc1S(=O)(=O)NC1CCCCC1` [CBK261653], for which the viability at 28.5 h, 10 µM is 90%.

Turning to `O=C(Nc1ccncc1)c1cnn(-c2ccc(Cl)cc2)c1C(F)(F)F` [CBK107441], the viability at 28.5 h, 10 µM amounted to 95.5%.

Regarding `Cc1nc2n(c(=O)c1CCSc1ccccc1C(=O)O)CCCC2` [CBK286818], the viability at 28.5 h, 10 µM came to 102%.

As for `O=C(CC1CCCCC1)Nc1snnc1-c1ccc(Cl)cc1` [CBK153245], the viability at 28.5 h, 10 µM was found to be 114%.

Consider `CC(CNc1cc(=O)n2ccccc2n1)CN1CCCC1` (centres unmarked) [CBK305270], for which the viability at 28.5 h, 10 µM came to 99.1%.

Take `CC(=O)N1CCc2cc(-c3cc4ccccn4c3)ccc21` [CBK285224]: the viability at 28.5 h, 10 µM is 104%.

`Cc1cn([C@@H]2O[C@H](CO)[C@H](O)C2O)c(=O)nc1N` (some centres unmarked) [CBK201268]: the viability at 28.5 h, 10 µM was found to be 105%.

In the case of `COc1nc(OCCNS(=O)(=O)c2ccc(C)cc2)nc(N(C)C)n1` [CBK266752], the viability at 28.5 h, 10 µM was found to be 117%.

As for `Cc1cc(=O)oc2cc(OCC(=O)Nc3ccc(S(=O)(=O)O)cc3)ccc12` [CBK301204N], the viability at 28.5 h, 10 µM was determined as 89.6%.

As to `CC1CCc2c(sc3ncnc(OCC(=O)NC4CCCC4)c23)C1` (centres unmarked) [CBK305893], the viability at 28.5 h, 10 µM is 83.1%.

`Cn1nc([N+](=O)[O-])nc1OCc1nc2ccccc2n1C` [CBK265247]: the viability at 28.5 h, 10 µM was 88.9%.

As to `O=C(NC(CN1CCOCC1)c1ccccc1)c1cnc(-c2ccc(Cl)cc2)c(-c2ccncc2)c1` (centres unmarked) [CBK037604], the viability at 28.5 h, 10 µM amounted to 100%.

As to `CC(C)(C)c1ccnc(N[C@H]2CO[C@H]3[C@@H]2OC[C@@H]3NC(=O)c2cccs2)n1` [CBK289520], the viability at 28.5 h, 10 µM stood at 94.8%.

Consider `O=C(Nc1nccs1)c1ncoc1-c1cccs1` [CBK283975], for which the viability at 28.5 h, 10 µM stood at 102%.

Turning to `CCOC(=O)N1CCC(NS(=O)(=O)Cc2ccccc2)CC1` [CBK045457], the viability at 28.5 h, 10 µM is 90.7%.

As for `CCCC/C=C/c1cnc(N)c(N2CCOCC2)n1` [CBK063398], the viability at 28.5 h, 10 µM turned out to be 98.1%.

With `CN1CCCN(c2cncc(-c3ccc(F)c(Cl)c3)n2)CC1` [CBK065297], the viability at 28.5 h, 10 µM amounted to 96.4%.

Regarding `CCN(CC(=O)NC(C)(C)C)Cc1nc(-c2cccc(Br)c2)no1` [CBK304230], the viability at 28.5 h, 10 µM is 102%.

For `CCOC(=O)C(NC(=O)c1cc[nH]c(=O)c1)c1cccc(C)c1C` (centres unmarked) [CBK304174], the viability at 28.5 h, 10 µM is 97.1%.

As for `COc1ccc(-c2cc(C(=O)OCc3ccccn3)c3ccccc3n2)cc1` [CBK296114], the viability at 28.5 h, 10 µM came out at 108%.

On to `COc1ccc(CN2CCC(N3CCN(c4ccccc4F)CC3)CC2)cc1OCc1ccccc1` [CBK264720G], for which the viability at 28.5 h, 10 µM came out at 105%.

Consider `O=C1CCCN1c1ccc(S(=O)(=O)N2CCN(c3ccccn3)CC2)cc1` [CBK268237], for which the viability at 28.5 h, 10 µM was 84.5%.

On to `Cc1ccc(NC2C=CS(=O)(=O)C2)cc1` (centres unmarked) [CBK057487], for which the viability at 28.5 h, 10 µM came out at 89.5%.

Regarding `CC(c1ccco1)N(C)Cc1c[nH]nc1-c1ccc(O)cc1` (centres unmarked) [CBK283303], the viability at 28.5 h, 10 µM came out at 89%.

As for `O=C(O)c1cc(Nc2nc(N3CCOCC3)nc(N3CCOCC3)n2)ccc1Cl` [CBK268081], the viability at 28.5 h, 10 µM came to 97.5%.

With `Cc1cc(C)n2nc(S(N)(=O)=O)c(C#N)c2n1` [CBK025767], the viability at 28.5 h, 10 µM stood at 90.7%.

For `CC(Oc1ccccc1)C(=O)Nc1ccc(-c2csc(-c3ccccc3)n2)cc1` (centres unmarked) [CBK268855], the viability at 28.5 h, 10 µM was found to be 103%.

Still in this series, the particulars now being: human, hela cells, % viability, bulk resorufin, single well.
As for `COc1cc(-c2ccc3c(c2)COC2(CCN(C(=O)OC(C)(C)C)CC2)O3)ccc1O` [CBK116310], the viability at 28.5 h, 10 µM came to 116%.

As to `CCOC(=O)C1(c2ccccc2)CCN(C(=O)c2ccco2)CC1` [CBK132199], the viability at 28.5 h, 10 µM was 86.2%.
